From patent publication US8686044B2, “Amide derivative, pest control agent containing the amide derivative, and use of the amide derivative” (Mitsui Chemicals Agro, Inc., priority 2008, dated 2014)

Columns and labels:
Assay type in all cases: in vivo
Plutella xylostella = assay: Pesticidal test against Plutella xylostella (cabbage leaf dip); conditions: foliar, 144 h, concentration 1 ppm, 2-stage larvae, examined after 6 days, 25° C., read-out: pesticidal rate
Method in brief: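 Cabbage leaf pieces dipped 30 s in test solution at a predetermined concentration, air-dried, then offered to 2nd-instar larvae, five per group in duplicate. Held at 25° C; living and dead larvae counted after 6 days.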

Musca domestica = assay: Pesticidal test against Musca domestica (petri dish dry film); conditions: 24 h, concentration 100 ppm, female adults, examined after 1 day, 25° C., read-out: pesticidal rate
Method in brief: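 Dry film from 1 ml acetone solution of compound at a predetermined concentration, air-dried in a 9 cm petri dish; female adult flies released and dish capped. Held at 25° C; living and dead counted after 1 day. Five insects per group, two replicates.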

Adoxophyes honmai = assay: Pesticidal test against Adoxophyes honmai (artificial feed dip); conditions: 144 h, 2-stage larvae, examined after 6 days, 25° C., read-out: pesticidal rate; for pest or weed control at 1 ppm: concentration 1 ppm; for pest or weed control at 10 ppm: concentration 10 ppm
Method in brief: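 Thin artificial feed slices dipped 30 s in test solution at a predetermined concentration, air-dried, then offered to 2nd-stage larvae. Kept at 25° C; live and dead larvae counted after 6 days. Five larvae per group, two replicates.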

Helicoverpa armigera = assay: Pesticidal test against Helicoverpa armigera (cabbage leaf disk dip); conditions: foliar, 72 h, concentration 1 ppm, 2-stage larvae, examined after 3 days, 25° C., read-out: pesticidal rate
Method in brief: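 Cabbage leaf disks were dipped for 30 s in test solution at a set concentration and air-dried. Second-instar larvae were placed one per hole and held at 25 °C, with live and dead counts taken after 3 days. Five larvae per group were tested in two replicates.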

Blattella germanica = assay: Pesticidal test against Blattella germanica (petri dish dry film); conditions: 24 h, concentration 100 ppm, female adults, examined after 1 day, 25° C., read-out: pesticidal rate
Method in brief: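 Acetone solution of test compound at a predetermined concentration dried as a film in a 9 cm petri dish; female adult cockroaches released onto it and kept at 25° C. Living and dead counted after 1 day; five insects per group, two replicates.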

Laodelphax striatellus = assay: Pesticidal test against Laodelphax striatellus (rice seedling spray); conditions: 144 h, concentration 100 ppm, 3-stage larvae, examined after 6 days, 25° C., read-out: pesticidal rate
Method in brief: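 Rice seedlings sprayed with 2.5 ml acetone solution of compound at a predetermined concentration, air-dried, then infested with third-stage Laodelphax striatellus larvae in capped water-containing tubes at 25 °C. Living and dead insects counted after 6 days; ten larvae per group, two replicates.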

Spodoptera litura = assay: Pesticidal test against Spodoptera litura (cabbage leaf dip); conditions: foliar, 144 h, concentration 1 ppm, 2-stage larvae, examined after 6 days, 25° C., read-out: pesticidal rate
Method in brief: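 Cabbage leaf pieces dipped 30 seconds in compound solution at a predetermined concentration and air-dried, then offered to second-stage larvae, five per group in two replicates. Held at 25° C. Living and dead larvae counted after 6 days.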

Choristoneura magnanima = assay: Pesticidal test against Choristoneura magnanima (artificial feed dip); conditions: 144 h, 2-stage larvae, examined after 6 days, 25° C., read-out: pesticidal rate; for pest or weed control at 1 ppm: concentration 1 ppm
Method in brief: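 Thin artificial feed slices dipped 30 s in compound solution at a set concentration, air-dried, then offered to 2nd-stage larvae held at 25° C. Living and dead larvae counted after 6 days; five larvae per group, two replicates.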

CN(C(=O)c1cccc(F)c1)c1cccc(C(=O)Nc2c(Br)cc(C(F)(C(F)(F)F)C(F)(F)F)cc2C(F)(F)F)c1F [7-1576]
≥ 70%: pest or weed control at 1 ppm (Plutella xylostella) | pest or weed control at 100 ppm (Musca domestica) | pest or weed control at 1 ppm (Adoxophyes honmai) | pest or weed control at 1 ppm (Helicoverpa armigera) | pest or weed control at 100 ppm (Blattella germanica) | pest or weed control at 100 ppm (Laodelphax striatellus) | pest or weed control at 1 ppm (Spodoptera litura) | pest or weed control at 1 ppm (Choristoneura magnanima)

CN(C(=O)c1cccnc1Cl)c1cccc(C(=O)Nc2c(Br)cc(C(F)(C(F)(F)F)C(F)(F)C(F)(F)F)cc2C(F)(F)F)c1 (centres unmarked) [7-382]
≥ 70%: pest or weed control at 1 ppm (Plutella xylostella) | pest or weed control at 100 ppm (Musca domestica) | pest or weed control at 1 ppm (Adoxophyes honmai) | pest or weed control at 1 ppm (Helicoverpa armigera) | pest or weed control at 100 ppm (Blattella germanica) | pest or weed control at 100 ppm (Laodelphax striatellus) | pest or weed control at 1 ppm (Spodoptera litura) | pest or weed control at 1 ppm (Choristoneura magnanima)

CN(C(=O)c1cccc(C#N)c1)c1cccc(C(=O)Nc2c(I)cc(C(F)(C(F)(F)F)C(F)(F)F)cc2C(F)(F)F)c1F [7-1750]
≥ 70%: pest or weed control at 1 ppm (Plutella xylostella) | pest or weed control at 100 ppm (Musca domestica) | pest or weed control at 1 ppm (Adoxophyes honmai) | pest or weed control at 1 ppm (Helicoverpa armigera) | pest or weed control at 100 ppm (Blattella germanica) | pest or weed control at 100 ppm (Laodelphax striatellus) | pest or weed control at 1 ppm (Spodoptera litura) | pest or weed control at 1 ppm (Choristoneura magnanima)

O=C(Nc1cccc(C(=O)Nc2c(Br)cc(C(F)(C(F)(F)F)C(F)(F)F)cc2C(F)(F)F)c1F)c1ccc(F)cc1 [6-1577]
≥ 70%: pest or weed control at 1 ppm (Plutella xylostella) | pest or weed control at 100 ppm (Musca domestica) | pest or weed control at 10 ppm (Adoxophyes honmai) | pest or weed control at 1 ppm (Helicoverpa armigera) | pest or weed control at 100 ppm (Blattella germanica) | pest or weed control at 100 ppm (Laodelphax striatellus) | pest or weed control at 1 ppm (Spodoptera litura) | pest or weed control at 1 ppm (Choristoneura magnanima)

O=C(Nc1cccc(C(=O)Nc2c(I)cc(C(F)(C(F)(F)F)C(F)(F)F)cc2C(F)(F)F)c1)c1ccc(F)cc1 [6-427]
≥ 70%: pest or weed control at 1 ppm (Plutella xylostella) | pest or weed control at 100 ppm (Musca domestica) | pest or weed control at 1 ppm (Adoxophyes honmai) | pest or weed control at 1 ppm (Helicoverpa armigera) | pest or weed control at 100 ppm (Blattella germanica) | pest or weed control at 100 ppm (Laodelphax striatellus) | pest or weed control at 1 ppm (Spodoptera litura) | pest or weed control at 1 ppm (Choristoneura magnanima)

CN(C(=O)c1ccc(Cl)nc1)c1cccc(C(=O)Nc2c(I)cc(C(F)(C(F)(F)F)C(F)(F)F)cc2C(F)(F)F)c1F [7-1773]
≥ 70%: pest or weed control at 1 ppm (Plutella xylostella) | pest or weed control at 100 ppm (Musca domestica) | pest or weed control at 10 ppm (Adoxophyes honmai) | pest or weed control at 1 ppm (Helicoverpa armigera) | pest or weed control at 100 ppm (Blattella germanica) | pest or weed control at 100 ppm (Laodelphax striatellus) | pest or weed control at 1 ppm (Spodoptera litura) | pest or weed control at 1 ppm (Choristoneura magnanima)

O=C(Nc1cccc(C(=O)Nc2c(I)cc(C(F)(C(F)(F)F)C(F)(F)F)cc2C(F)(F)F)c1F)c1cccc(F)c1 [6-1732]
≥ 70%: pest or weed control at 1 ppm (Plutella xylostella) | pest or weed control at 100 ppm (Musca domestica) | pest or weed control at 1 ppm (Adoxophyes honmai) | pest or weed control at 1 ppm (Helicoverpa armigera) | pest or weed control at 100 ppm (Blattella germanica) | pest or weed control at 100 ppm (Laodelphax striatellus) | pest or weed control at 1 ppm (Spodoptera litura) | pest or weed control at 1 ppm (Choristoneura magnanima)

O=C(Nc1cccc(C(=O)Nc2c(I)cc(C(F)(C(F)(F)F)C(F)(F)F)cc2C(F)(F)F)c1)c1cccc(F)c1 [6-426]
≥ 70%: pest or weed control at 1 ppm (Plutella xylostella) | pest or weed control at 100 ppm (Musca domestica) | pest or weed control at 10 ppm (Adoxophyes honmai) | pest or weed control at 1 ppm (Helicoverpa armigera) | pest or weed control at 100 ppm (Blattella germanica) | pest or weed control at 1 ppm (Spodoptera litura) | pest or weed control at 1 ppm (Choristoneura magnanima)

CN(C(=O)c1ccc(Cl)nc1)c1cccc(C(=O)Nc2c(I)cc(C(F)(C(F)(F)F)C(F)(F)F)cc2I)c1F [7-1303]
≥ 70%: pest or weed control at 1 ppm (Plutella xylostella) | pest or weed control at 100 ppm (Musca domestica) | pest or weed control at 1 ppm (Adoxophyes honmai) | pest or weed control at 1 ppm (Helicoverpa armigera) | pest or weed control at 100 ppm (Blattella germanica) | pest or weed control at 100 ppm (Laodelphax striatellus) | pest or weed control at 1 ppm (Spodoptera litura) | pest or weed control at 1 ppm (Choristoneura magnanima)

CN(C(=O)c1cccc(F)c1)c1cccc(C(=O)Nc2c(I)cc(C(F)(C(F)(F)F)C(F)(F)F)cc2I)c1F [7-1262]
≥ 70%: pest or weed control at 1 ppm (Plutella xylostella) | pest or weed control at 100 ppm (Musca domestica) | pest or weed control at 1 ppm (Adoxophyes honmai) | pest or weed control at 1 ppm (Helicoverpa armigera) | pest or weed control at 100 ppm (Blattella germanica) | pest or weed control at 100 ppm (Laodelphax striatellus) | pest or weed control at 1 ppm (Spodoptera litura) | pest or weed control at 1 ppm (Choristoneura magnanima)

O=C(Nc1cccc(C(=O)Nc2c(I)cc(C(F)(C(F)(F)F)C(F)(F)F)cc2C(F)(F)F)c1F)c1ccccc1 [6-1730]
≥ 70%: pest or weed control at 1 ppm (Plutella xylostella) | pest or weed control at 100 ppm (Musca domestica) | pest or weed control at 1 ppm (Adoxophyes honmai) | pest or weed control at 1 ppm (Helicoverpa armigera) | pest or weed control at 100 ppm (Blattella germanica) | pest or weed control at 100 ppm (Laodelphax striatellus) | pest or weed control at 1 ppm (Spodoptera litura) | pest or weed control at 1 ppm (Choristoneura magnanima)

CN(C(=O)c1cccnc1Cl)c1cccc(C(=O)Nc2c(I)cc(C(F)(C(F)(F)F)C(F)(F)C(F)(F)F)cc2C(F)(F)F)c1 (centres unmarked) [7-538]
≥ 70%: pest or weed control at 1 ppm (Plutella xylostella) | pest or weed control at 100 ppm (Musca domestica) | pest or weed control at 1 ppm (Adoxophyes honmai) | pest or weed control at 1 ppm (Helicoverpa armigera) | pest or weed control at 100 ppm (Blattella germanica) | pest or weed control at 100 ppm (Laodelphax striatellus) | pest or weed control at 1 ppm (Spodoptera litura) | pest or weed control at 10 ppm (Choristoneura magnanima; concentration 10 ppm)

CN(C(=O)c1cccc(C#N)c1)c1cccc(C(=O)Nc2c(I)cc(C(F)(C(F)(F)F)C(F)(F)F)cc2C(F)(F)F)c1 [7-444]
≥ 70%: pest or weed control at 1 ppm (Plutella xylostella) | pest or weed control at 100 ppm (Musca domestica) | pest or weed control at 10 ppm (Adoxophyes honmai) | pest or weed control at 1 ppm (Helicoverpa armigera) | pest or weed control at 100 ppm (Blattella germanica) | pest or weed control at 100 ppm (Laodelphax striatellus) | pest or weed control at 1 ppm (Spodoptera litura) | pest or weed control at 1 ppm (Choristoneura magnanima)

CN(C(=O)c1ccc(Cl)nc1)c1cccc(C(=O)Nc2c(I)cc(C(F)(C(F)(F)F)C(F)(F)C(F)(F)F)cc2C(F)(F)F)c1F (centres unmarked) [7-1851]
≥ 70%: pest or weed control at 1 ppm (Plutella xylostella) | pest or weed control at 100 ppm (Musca domestica) | pest or weed control at 10 ppm (Adoxophyes honmai) | pest or weed control at 1 ppm (Helicoverpa armigera) | pest or weed control at 100 ppm (Blattella germanica) | pest or weed control at 100 ppm (Laodelphax striatellus) | pest or weed control at 1 ppm (Spodoptera litura) | pest or weed control at 1 ppm (Choristoneura magnanima)

CN(C(=O)c1cccc(C#N)c1)c1cccc(C(=O)Nc2c(Br)cc(C(F)(C(F)(F)F)C(F)(F)F)cc2C(F)(F)F)c1F [7-1594]
≥ 70%: pest or weed control at 1 ppm (Plutella xylostella) | pest or weed control at 1 ppm (Adoxophyes honmai) | pest or weed control at 1 ppm (Helicoverpa armigera) | pest or weed control at 100 ppm (Blattella germanica) | pest or weed control at 100 ppm (Laodelphax striatellus) | pest or weed control at 1 ppm (Spodoptera litura) | pest or weed control at 1 ppm (Choristoneura magnanima)

O=C(Nc1cccc(C(=O)Nc2c(Br)cc(C(F)(C(F)(F)F)C(F)(F)F)cc2Br)c1F)c1cccc(F)c1 [6-1106]
≥ 70%: pest or weed control at 1 ppm (Plutella xylostella) | pest or weed control at 1 ppm (Adoxophyes honmai) | pest or weed control at 1 ppm (Helicoverpa armigera) | pest or weed control at 100 ppm (Blattella germanica) | pest or weed control at 100 ppm (Laodelphax striatellus) | pest or weed control at 1 ppm (Spodoptera litura) | pest or weed control at 1 ppm (Choristoneura magnanima)
